These results are taken from ChEMBL document CHEMBL1201862, “PubChem BioAssay data set” (2004).

Holding throughout (assay): NCI-60 cell line screen, 48 h
Assay [1] deals with CAKI-1.
For assay [2], the system named is CCRF-CEM.
Assay [3] has as its system DU-145.
Assay [4] concerns HOP-92.
For assay [5], the system named is HT-29.
Assay [6] has as its system Hs-578T.
In assay [7] the test system is IGROV-1.
Assay [8] relates to MDA-MB-435.
The subject of assay [9] is MOLT-4.
Assay [10] deals with NCI-H226.
The subject of assay [11] is NCI-H460.
Assay [12] has as its system NCI/ADR-RES.
In assay [13] the test system is OVCAR-5.
The subject of assay [14] is RXF 393.
Assay [15] deals with SK-MEL-2.
Assay [16] relates to SNB-75.
Assay [17] concerns SW-620.
Assay [18] concerns TK-10.
Assay [19] relates to UACC-257.
Assay [20] concerns UO-31.

Each structure is given as a SMILES string.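 1) Cells in 96-well plates. 2) Compound, 48 h, 5 concentrations. 3) Linear interpolation between surrounding doses. 4) Unreached endpoint = highest concentration. Abbreviation: GI50, concentration required for 50% inhibition of growth.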 Active and inactive are the calls of the source. Cut-off read from the data, not from the text of the source: active = GI50 up to about 1.1 µM and inactive = higher.

Turning to `COc1c2c(cc3c1C(O)N1CC[C@]34[C@H]3O[C@H]3[C@H](OC)C[C@@H]14)OCO2` (stereo not given in full), the GI50 in assay [1] was > 100 µM (inactive); in assay [2], 2.38 µM (inactive); in assay [3], > 100 µM (inactive); in assay [4], > 100 µM (inactive); in assay [5], 42.8 µM (inactive); in [6], > 100 µM (inactive). In addition, the GI50 in assay [7] was 64.9 µM (inactive); in assay [8], 31.6 µM (inactive); in [9], > 100 µM (inactive); in [10] it was > 100 µM (inactive); in [11], 72.3 µM (inactive); in assay [12] it was > 100 µM (inactive). Further, the GI50 in [13] is > 100 µM (inactive); in assay [14], 67.5 µM (inactive); in assay [15], 26.4 µM (inactive); in [16], 86.3 µM (inactive); in assay [17], 54.7 µM (inactive); in assay [18], > 100 µM (inactive). Further, the GI50 was 64.6 µM (inactive) in assay [19] and > 100 µM (inactive) in assay [20].
With `Cc1nc(C)c(C(=O)NNC(=O)Cc2ccccc2)cc1C(=O)NNC(=O)Cc1ccccc1`, the GI50 in assay [1], in assay [2], in [3], in [4], in [5] and in assay [6] was > 100 µM (inactive) throughout. Also, the GI50 in [7], in [8], in assay [9], in assay [10], in [11] and in [12] was > 100 µM (inactive) in each case. For the same compound, the GI50 in assay [13] was > 100 µM (inactive); in [14], > 100 µM (inactive); in assay [15], > 100 µM (inactive); in [16], 94 µM (inactive); in assay [17], > 100 µM (inactive); in assay [18], > 100 µM (inactive). The GI50 in assay [19] and in assay [20] was > 100 µM (inactive) in each case.
Consider `O=c1c(Sc2ncccn2)c(Sc2ncccn2)cnn1CCl`, for which the GI50 in [1] was 1.98 µM (inactive); in assay [2], 0.295 µM (active); in assay [3] it was 2.64 µM (inactive); in assay [4], 2.59 µM (inactive); in assay [5] it was 1.98 µM (inactive); in assay [6], 14.5 µM (inactive). The GI50 in assay [7] was 1.17 µM (inactive); in assay [8], 1.77 µM (inactive); in [9] it was 2.72 µM (inactive); in assay [10], 28.1 µM (inactive); in assay [11], 14.7 µM (inactive); in [12], 4.97 µM (inactive). Besides, the GI50 is 7.21 µM (inactive) in assay [13]; 1.5 µM (inactive) in assay [14]; 2.22 µM (inactive) in assay [15]; 16.4 µM (inactive) in [16]; 2.4 µM (inactive) in assay [17]; 0.398 µM (active) in [18]. The figures for the GI50 in assay [19] and in assay [20] were 2.17 µM (inactive) and 1.7 µM (inactive), respectively.
Regarding `S=C1/C(=N/c2ccccc2)N(C2CCCCC2)/C(=N\C2CCCCC2)N1c1ccccc1`, the GI50 was > 100 µM (inactive) in [1]; > 100 µM (inactive) in assay [2]; > 100 µM (inactive) in assay [3]; > 100 µM (inactive) in [4]; 78.5 µM (inactive) in assay [5]; > 100 µM (inactive) in assay [6]. For the same compound, the GI50 was 87.5 µM (inactive) in [7]; > 100 µM (inactive) in assay [8]; > 100 µM (inactive) in [9]; > 100 µM (inactive) in assay [10]; 38 µM (inactive) in assay [11]; > 100 µM (inactive) in assay [12]. Also, the GI50 in assay [13], in assay [14], in assay [15], in assay [16], in assay [17] and in [18] was > 100 µM (inactive) each time. Further, the GI50 in assay [19] and in assay [20] was > 100 µM (inactive) in each case.
Turning to `C=C1C(=O)O[C@H]2[C@H]3O[C@@H](C[C@@H]12)[C@](C)(O)CCCC(C)=CCC[C@H]3C`, the GI50 in assay [1] was 10.8 µM (inactive); in assay [2], 0.807 µM (active); in assay [3] it was 13.1 µM (inactive); in [4] it was 1.34 µM (inactive); in assay [5] it was 13.5 µM (inactive); in assay [6], 3.9 µM (inactive). In addition, the GI50 in [7] was 1.67 µM (inactive); in [8], 3.86 µM (inactive); in assay [9], 2.08 µM (inactive); in assay [10] it was 18.1 µM (inactive); in assay [11], 5.18 µM (inactive); in assay [12], 8.2 µM (inactive). Moreover, the GI50 in assay [13] was 14.6 µM (inactive); in assay [14], 4.91 µM (inactive); in assay [15] it was 15 µM (inactive); in assay [16], 10.5 µM (inactive); in [17] it was 5.13 µM (inactive); in [18], 3.24 µM (inactive). The GI50 was 10.3 µM (inactive) in assay [19] and 11.4 µM (inactive) in [20].
Regarding `Cc1ccc(S(=O)(=O)NC(=O)C2=C(c3ccccc3)[N-]N(C)c3nc4cccc[n+]4nc32)cc1`, the GI50 in [1] was > 100 µM (inactive); in assay [2], > 100 µM (inactive); in [3], > 100 µM (inactive); in [4] it was 12.6 µM (inactive); in [5], > 100 µM (inactive); in assay [6] it was > 100 µM (inactive). Besides, the GI50 is 51.4 µM (inactive) in assay [7]; > 100 µM (inactive) in assay [8]; 99.5 µM (inactive) in [9]; > 100 µM (inactive) in assay [10]; > 100 µM (inactive) in assay [11]; > 100 µM (inactive) in assay [12]. The GI50 was > 100 µM (inactive) in assay [13]; > 100 µM (inactive) in [14]; > 100 µM (inactive) in [15]; 57.4 µM (inactive) in assay [16]; 49.2 µM (inactive) in assay [17]; > 100 µM (inactive) in assay [18]. The GI50 in [19] is 66.4 µM (inactive); in assay [20] it was > 100 µM (inactive).
Regarding `CCN(CC)CCO/N=C1\CC[C@H]2[C@@H]3CCc4cc(OC)ccc4[C@H]3CC[C@]12C`, the GI50 was 0.74 µM (active) in [1]; 1.22 µM (inactive) in assay [2]; 4.76 µM (inactive) in assay [3]; 2.45 µM (inactive) in assay [4]; 0.53 µM (active) in [5]; 2.31 µM (inactive) in assay [6]. Moreover, the GI50 in assay [7] is 3.26 µM (inactive); in [8] it was 0.632 µM (active); in assay [9] it was 1.44 µM (inactive); in assay [10] it was 1.88 µM (inactive); in [11], 0.804 µM (active); in assay [12], 5.41 µM (inactive). The GI50 in [13] was 3.17 µM (inactive); in assay [14], 1.6 µM (inactive); in assay [15], 2.3 µM (inactive); in assay [16], 2.44 µM (inactive); in assay [17] it was 1.72 µM (inactive); in [18], 6.44 µM (inactive). For the same compound, the values for the GI50 in [19] and in assay [20] were 0.859 µM (active) and 2.94 µM (inactive), respectively.
